Experimental data from patent US20170266154A1, “METHOD FOR TREATING ALZHEIMER'S DISEASE AND 2, 3-BIPHOSPHOGLYCERATE METABOLISM DISORDER INDUCED” (National Sun Yat-sen University, priority 2016, published 2017).

Target: hemoglobin (Homo sapiens, UniProt P68871+P69905)
Assay: hemoglobin-oxygen equilibrium curves (P50 value, oxygen saturation fraction)
Assay type: biochemical
Details: for effect in combination with 2,3-BPG on hemoglobin modulation: FIG. 2
Excerpt: The oxygen affinity of hemoglobin was represented by P50 value. The P50 value was the required partial pressure of oxygen to achieve 50% oxygen saturation.

[1] = PO2 20 mmHg, 2,3-BPG 1.2 mM, alone or after treating with a phthalide compound (FIG. 7)

hemoglobin, sequence (P69905 2-142 limits assumed): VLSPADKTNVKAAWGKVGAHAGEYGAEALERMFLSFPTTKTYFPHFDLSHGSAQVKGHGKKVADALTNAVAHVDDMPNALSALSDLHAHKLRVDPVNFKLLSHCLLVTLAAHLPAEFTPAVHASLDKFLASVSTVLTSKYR
hemoglobin, sequence (P68871 2-147 limits assumed): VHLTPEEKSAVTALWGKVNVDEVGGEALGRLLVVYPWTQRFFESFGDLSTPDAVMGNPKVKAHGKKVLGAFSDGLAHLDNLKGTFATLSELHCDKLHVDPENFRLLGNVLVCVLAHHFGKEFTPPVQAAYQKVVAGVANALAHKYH

| oxygen release efficiency [1] [%] | oxygen saturation level / fraction of hemoglobin [1] | P50 value of hemoglobin (about 4 mM 2,3-BPG, no phthalide compound) [mmHg] | oxygen release efficiency of hemoglobin (oxygen partial pressure 20 mmHg, 12 mM 2,3-BPG, hemoglobin without 2,3-BPG 20%) [%] | oxygen saturation fraction of hemoglobin (oxygen partial pressure 20 mmHg, 12 mM 2,3-BPG, hemoglobin without 2,3-BPG about 80%) [%] | 2,3-BPG required for hemoglobin to reach a P50 value of 18.8 mmHg (approximately the same or higher) (without or after administration of phthalide compounds (FIG. 6)) | SMILES | effect in combination with 2,3-BPG on hemoglobin modulation |
| --- | --- | --- | --- | --- | --- | --- | --- |
|  |  |  |  |  |  | CCC/C=C1\OC(=O)C2=C1CC[C@@H](O)[C@@H]2O [Senkyunolide I, senkyunolide I] | synergistic effect |
| 40 | about 60% | 18.8 | 65 | ~35 | about 4 mM | O=C(O)C(COP(=O)(O)O)OP(=O)(O)O (centres unmarked) [2,3-BPG, 2,3-bisphosphorglycerate] |  |
|  |  |  |  |  |  | CCC/C=C1\OC(=O)C2=C1CCC=C2 [Z-Ligustilide, Z-ligustilide] | synergistic effect |
